# According to patent publication US20220347171A1, “TREATMENT OF PRURIGO NODULARIS” (TREVI THERAPEUTICS, INC., priority 2016, published 2022):
# Where a name gives a salt, the structure may show the parent alone.
# Test system: prurigo nodularis patients
# Experiment: TR03ext (Example 3): Prurigo Activity Score (PAS) healed lesions; Stage 0 100% healed, Stage 1 75%-99%, Stage 2 50%-74%, Stage 3 25%-49%, Stage 4 0-24% healed
# Assay type: in vivo, human
# Text: In some embodiments, after the treatment the patient experiences a substantial reduction of itch that is characterized by at least one category/stage improvement in Prurigo Activity Score (PAS). In particular embodiments, after the treatment the patient experiences a reduction of itch that results in at least one category/stage improvement in Prurigo Activity Score (PAS) domains of number of prurigo lesions, prurigo lesions with excoriations/crusts and/or healed prurigo lesions. The PAS consists of 7 qualitative and quantitative measurements related to the examination of the skin. Type, number, distribution, affected body parts, and quantitative number of lesions in a representative body part are documented. The biggest lesion and the most representative lesion are monitored with documentation of height and area measurements. Prurigo lesion activity is recorded as a percentages based on their stage (0-4). In some embodiments, number measurements of lesions on the body have four numerical categories: 0, 1-19, 20-100 and >100. In some embodiments, prurigo lesions with excoriations/crusts have five categories: Stage 4 (76%-100%), Stage 3 (51%-75%), Stage 2 (26%-50%), Stage 1 (1-25%) and Stage 0 (0%). In some embodiments, healed prurigo lesions have five categories: Stage 4 (0-24%), Stage 3 (25-49%), Stage 2 (50-74%), Stage 1 (75%-99%), Stage 0 (100%).
# This clinical study was a Phase 2 Open Label Extension Study (clinical study TR03ext) of the randomized, double-blind, 3-parallel arm, placebo controlled dose ranging study described in Example 2. All those subjects who were randomized, and then completed Example 2 study, were eligible to participate in the Extension Study.
# The primary endpoint was a description of the overall incidence and nature of Treatment-Emergent AEs (TEAES) during weeks 5-50 of the study. Exploratory efficacy endpoints included Change from Baseline patient reported outcome measures of Worst itch NRS, itchy VRS and ItchyQoL, by Treatment Period study visit and Baseline NRS score. There was also an assessment of any potential skin lesion changes over time using the metrics of the PAS.
# Patients in Extension Study were titrated over a dose range of 30 mg QD to 180 mg BID based on tolerability. The selected dose range was based on Example 2 study whereby patients were titrated from a 30 mg QD dose either to 30 mg BID, 60 mg BID, 90 mg BID, 120 mg BID or a 180 mg BID dose. The highest dose proposed was 180 mg BID (360 mg daily dose), and was well below the highest recommended daily treatment of 160 mg IV (equivalent to 960 mg oral) for the current marketed parenteral administered product.
# Tables 12, 13 and 14 display healed lesion PAS data for subjects who received treatment for at least 6 months, subjects who received treatment for at least 9 months and subjects who completed 50 weeks of treatment in the study, respectively. The status of the healed lesion activity is reported as percentages based on their stage (0-4) using a grading system: Stage 0 (100% healed); Stage 1 (75%-99% healed); Stage 2 (50%-74% healed); Stage 3 (25%-49% healed); Stage 4: 0-24% healed. Thus the higher the stage, the […] the prurigo skin pathology.
# [1] = treatment for at least 6 months
# [2] = treatment for at least 9 months
smiles,measurement,setting,value
"Oc1ccc2c3c1OC1[C@@H](O)CC[C@@]4(O)[C@@H](C2)N(CC2CCC2)CC[C@]314 (stereo partly drawn) [Nalbuphine, 17-(cyclobutylmethyl)-4,5α-epoxymorphinian-3, 6α, 14-triol, hydrochloride]",Subjects with at least one category improvement in the percentage of healed lesions (PAS),"after 6 months, 10/16",62.5%
same,Subjects with at least one category improvement in the percentage of healed lesions (PAS),"after 9 months, 7/13",53.8%
same,Subjects with at least one category improvement in the percentage of healed lesions (PAS),"after 12 months, 6/12",50%
same,Healed lesion PAS Category Shift: Baseline Stage 0 to Last Observed Stage 0,treatment for 50 weeks,1 (7.7) Number (%) of Subjects
same,Healed lesion PAS Category Shift: Baseline Stage 0 to Last Observed Stage 1,treatment for 50 weeks,0 Number (%) of Subjects
same,Healed lesion PAS Category Shift: Baseline Stage 0 to Last Observed Stage 2,treatment for 50 weeks,0 Number (%) of Subjects
same,Healed lesion PAS Category Shift: Baseline Stage 0 to Last Observed Stage 3,treatment for 50 weeks,0 Number (%) of Subjects
same,Healed lesion PAS Category Shift: Baseline Stage 0 to Last Observed Stage 4,treatment for 50 weeks,0 Number (%) of Subjects
same,Healed lesion PAS Category Shift: Baseline Stage 1 to Last Observed Stage 0,treatment for 50 weeks,0 Number (%) of Subjects
same,Healed lesion PAS Category Shift: Baseline Stage 1 to Last Observed Stage 1,treatment for 50 weeks,2 (15.4) Number (%) of Subjects
same,Healed lesion PAS Category Shift: Baseline Stage 1 to Last Observed Stage 2,treatment for 50 weeks,1 (7.7) Number (%) of Subjects
same,Healed lesion PAS Category Shift: Baseline Stage 1 to Last Observed Stage 3,treatment for 50 weeks,0 Number (%) of Subjects
same,Healed lesion PAS Category Shift: Baseline Stage 1 to Last Observed Stage 4,treatment for 50 weeks,0 Number (%) of Subjects
same,Healed lesion PAS Category Shift: Baseline Stage 2 to Last Observed Stage 0,treatment for 50 weeks,0 Number (%) of Subjects
same,Healed lesion PAS Category Shift: Baseline Stage 2 to Last Observed Stage 1,treatment for 50 weeks,3 (23.1) Number (%) of Subjects
same,Healed lesion PAS Category Shift: Baseline Stage 2 to Last Observed Stage 2,treatment for 50 weeks,0 Number (%) of Subjects
same,Healed lesion PAS Category Shift: Baseline Stage 2 to Last Observed Stage 3,treatment for 50 weeks,0 Number (%) of Subjects
same,Healed lesion PAS Category Shift: Baseline Stage 2 to Last Observed Stage 4,treatment for 50 weeks,0 Number (%) of Subjects
same,Healed lesion PAS Category Shift: Baseline Stage 3 to Last Observed Stage 0,treatment for 50 weeks,0 Number (%) of Subjects
same,Healed lesion PAS Category Shift: Baseline Stage 3 to Last Observed Stage 1,treatment for 50 weeks,0 Number (%) of Subjects
same,Healed lesion PAS Category Shift: Baseline Stage 3 to Last Observed Stage 2,treatment for 50 weeks,0 Number (%) of Subjects
same,Healed lesion PAS Category Shift: Baseline Stage 3 to Last Observed Stage 3,treatment for 50 weeks,2 (15.4) Number (%) of Subjects
same,Healed lesion PAS Category Shift: Baseline Stage 3 to Last Observed Stage 4,treatment for 50 weeks,0 Number (%) of Subjects
same,Healed lesion PAS Category Shift: Baseline Stage 4 to Last Observed Stage 0,treatment for 50 weeks,1 (7.7) Number (%) of Subjects
same,Healed lesion PAS Category Shift: Baseline Stage 4 to Last Observed Stage 1,treatment for 50 weeks,0 (7.7) Number (%) of Subjects
same,Healed lesion PAS Category Shift: Baseline Stage 4 to Last Observed Stage 2,treatment for 50 weeks,1 (7.7) Number (%) of Subjects
same,Healed lesion PAS Category Shift: Baseline Stage 4 to Last Observed Stage 3,treatment for 50 weeks,1 (7.7) Number (%) of Subjects
same,Healed lesion PAS: Last Observed PAS Result Stage 0,treatment for 50 weeks,2 (15.4) Number (%) of Subjects
same,Healed lesion PAS: Last Observed PAS Result Stage 1,treatment for 50 weeks,6 (46.1) Number (%) of Subjects
same,Healed lesion PAS: Last Observed PAS Result Stage 2,treatment for 50 weeks,2 (15.4) Number (%) of Subjects
same,Healed lesion PAS: Last Observed PAS Result Stage 3,treatment for 50 weeks,3 (23.1) Number (%) of Subjects
same,Healed lesion PAS: Last Observed PAS Result Stage 4,treatment for 50 weeks,1 (7.7) Number (%) of Subjects
same,Healed lesion PAS Category Shift: Baseline Stage 0 to Last Observed Stage 0,[1],1 (5.9) Number (%) of Subjects
same,Healed lesion PAS Category Shift: Baseline Stage 0 to Last Observed Stage 1,[1],0 Number (%) of Subjects
same,Healed lesion PAS Category Shift: Baseline Stage 0 to Last Observed Stage 2,[1],0 Number (%) of Subjects
same,Healed lesion PAS Category Shift: Baseline Stage 0 to Last Observed Stage 3,[1],0 Number (%) of Subjects
same,Healed lesion PAS Category Shift: Baseline Stage 0 to Last Observed Stage 4,[1],0 Number (%) of Subjects
same,Healed lesion PAS Category Shift: Baseline Stage 1 to Last Observed Stage 0,[1],0 Number (%) of Subjects
same,Healed lesion PAS Category Shift: Baseline Stage 1 to Last Observed Stage 1,[1],2 (11.8) Number (%) of Subjects
same,Healed lesion PAS Category Shift: Baseline Stage 1 to Last Observed Stage 2,[1],1 (5.9) Number (%) of Subjects
same,Healed lesion PAS Category Shift: Baseline Stage 1 to Last Observed Stage 3,[1],0 Number (%) of Subjects
same,Healed lesion PAS Category Shift: Baseline Stage 1 to Last Observed Stage 4,[1],0 Number (%) of Subjects
same,Healed lesion PAS Category Shift: Baseline Stage 2 to Last Observed Stage 0,[1],1 (5.9) Number (%) of Subjects
same,Healed lesion PAS Category Shift: Baseline Stage 2 to Last Observed Stage 1,[1],3 (17.6) Number (%) of Subjects
same,Healed lesion PAS Category Shift: Baseline Stage 2 to Last Observed Stage 2,[1],0 Number (%) of Subjects
same,Healed lesion PAS Category Shift: Baseline Stage 2 to Last Observed Stage 3,[1],0 Number (%) of Subjects
same,Healed lesion PAS Category Shift: Baseline Stage 2 to Last Observed Stage 4,[1],0 Number (%) of Subjects
same,Healed lesion PAS Category Shift: Baseline Stage 3 to Last Observed Stage 0,[1],0 Number (%) of Subjects
same,Healed lesion PAS Category Shift: Baseline Stage 3 to Last Observed Stage 1,[1],1 (5.9) Number (%) of Subjects
same,Healed lesion PAS Category Shift: Baseline Stage 3 to Last Observed Stage 2,[1],0 Number (%) of Subjects
same,Healed lesion PAS Category Shift: Baseline Stage 3 to Last Observed Stage 3,[1],2 (11.8) Number (%) of Subjects
same,Healed lesion PAS Category Shift: Baseline Stage 3 to Last Observed Stage 4,[1],0 Number (%) of Subjects
same,Healed lesion PAS Category Shift: Baseline Stage 4 to Last Observed Stage 0,[1],1 (5.9) Number (%) of Subjects
same,Healed lesion PAS Category Shift: Baseline Stage 4 to Last Observed Stage 1,[1],2 (11.8) Number (%) of Subjects
same,Healed lesion PAS Category Shift: Baseline Stage 4 to Last Observed Stage 2,[1],1 (5.9) Number (%) of Subjects
same,Healed lesion PAS Category Shift: Baseline Stage 4 to Last Observed Stage 3,[1],1 (5.9) Number (%) of Subjects
same,Healed lesion PAS Category Shift: Baseline Stage 4 to Last Observed Stage 4,[1],1 (5.9) Number (%) of Subjects
same,Healed lesion PAS: Last Observed PAS Result Stage 0,[1],3 (17.6) Number (%) of Subjects
same,Healed lesion PAS: Last Observed PAS Result Stage 1,[1],9 (52.9) Number (%) of Subjects
same,Healed lesion PAS: Last Observed PAS Result Stage 2,[1],2 (11.8) Number (%) of Subjects
same,Healed lesion PAS: Last Observed PAS Result Stage 3,[1],3 (17.6) Number (%) of Subjects
same,Healed lesion PAS: Last Observed PAS Result Stage 4,[1],1 (5.9) Number (%) of Subjects
same,Healed lesion PAS Category Shift: Baseline Stage 0 to Last Observed Stage 0,[2],1 (7.1%) Number (%) of Subjects
same,Healed lesion PAS Category Shift: Baseline Stage 0 to Last Observed Stage 1,[2],0 Number (%) of Subjects
same,Healed lesion PAS Category Shift: Baseline Stage 0 to Last Observed Stage 2,[2],0 Number (%) of Subjects
same,Healed lesion PAS Category Shift: Baseline Stage 0 to Last Observed Stage 3,[2],0 Number (%) of Subjects
same,Healed lesion PAS Category Shift: Baseline Stage 0 to Last Observed Stage 4,[2],0 Number (%) of Subjects
same,Healed lesion PAS Category Shift: Baseline Stage 1 to Last Observed Stage 0,[2],0 Number (%) of Subjects
same,Healed lesion PAS Category Shift: Baseline Stage 1 to Last Observed Stage 1,[2],2 (14.3) Number (%) of Subjects
same,Healed lesion PAS Category Shift: Baseline Stage 1 to Last Observed Stage 2,[2],1 (7.1) Number (%) of Subjects
same,Healed lesion PAS Category Shift: Baseline Stage 1 to Last Observed Stage 3,[2],0 Number (%) of Subjects
same,Healed lesion PAS Category Shift: Baseline Stage 1 to Last Observed Stage 4,[2],0 Number (%) of Subjects
same,Healed lesion PAS Category Shift: Baseline Stage 2 to Last Observed Stage 0,[2],0 Number (%) of Subjects
same,Healed lesion PAS Category Shift: Baseline Stage 2 to Last Observed Stage 1,[2],3 (21.4) Number (%) of Subjects
same,Healed lesion PAS Category Shift: Baseline Stage 2 to Last Observed Stage 2,[2],0 Number (%) of Subjects
same,Healed lesion PAS Category Shift: Baseline Stage 2 to Last Observed Stage 3,[2],0 Number (%) of Subjects
same,Healed lesion PAS Category Shift: Baseline Stage 2 to Last Observed Stage 4,[2],0 Number (%) of Subjects
same,Healed lesion PAS Category Shift: Baseline Stage 3 to Last Observed Stage 0,[2],0 Number (%) of Subjects
same,Healed lesion PAS Category Shift: Baseline Stage 3 to Last Observed Stage 1,[2],0 Number (%) of Subjects
same,Healed lesion PAS Category Shift: Baseline Stage 3 to Last Observed Stage 2,[2],0 Number (%) of Subjects
same,Healed lesion PAS Category Shift: Baseline Stage 3 to Last Observed Stage 3,[2],2 (14.3) Number (%) of Subjects
same,Healed lesion PAS Category Shift: Baseline Stage 3 to Last Observed Stage 4,[2],0 Number (%) of Subjects
same,Healed lesion PAS Category Shift: Baseline Stage 4 to Last Observed Stage 0,[2],1 (7.1) Number (%) of Subjects
same,Healed lesion PAS Category Shift: Baseline Stage 4 to Last Observed Stage 1,[2],1 (7.1) Number (%) of Subjects
same,Healed lesion PAS Category Shift: Baseline Stage 4 to Last Observed Stage 2,[2],1 (7.1) Number (%) of Subjects
same,Healed lesion PAS Category Shift: Baseline Stage 4 to Last Observed Stage 3,[2],1 (7.1) Number (%) of Subjects
same,Healed lesion PAS Category Shift: Baseline Stage 4 to Last Observed Stage 4,[2],1 (7.1) Number (%) of Subjects
same,Healed lesion PAS: Last Observed PAS Result Stage 0,[2],2 (14.3) Number (%) of Subjects
same,Healed lesion PAS: Last Observed PAS Result Stage 1,[2],6 (42.9) Number (%) of Subjects
same,Healed lesion PAS: Last Observed PAS Result Stage 2,[2],2 (14.3) Number (%) of Subjects
same,Healed lesion PAS: Last Observed PAS Result Stage 3,[2],3 (21.4) Number (%) of Subjects
same,Healed lesion PAS: Last Observed PAS Result Stage 4,[2],1 (7.1) Number (%) of Subjects
